Measurements as given in patent US20220347171A1, “TREATMENT OF PRURIGO NODULARIS” (TREVI THERAPEUTICS, INC., priority 2016, published 2022).
Where a name gives a salt, the structure may show the parent alone.

System: prurigo nodularis patients
Experiment: Example 2 trial: ItchyQoL total score
Assay type: in vivo, human
Details: for Mean (SD) decrease in ItchyQoL total score from baseline to Week 10: placebo −5.45 (10.91)
Method: This clinical study was a double-blind, placebo-controlled trial in which prurigo nodularis patients were randomized in a 1:1:1 ratio to nalbuphine ER tablets to a target dose of 90 mg twice daily (BID), nalbuphine HCl ER tablets 180 mg BID, or placebo tablets BID. Use of nonsedating rescue antihistamine medications (non-first generation H1-antihistamines [Simons F E. Advances in H1-antihistamines. N Engl J Med. 2004; 351(21):2203-17.]) were allowed in the study but their use was recorded. Cleansing emollients were allowed for hygiene purposes provided there were no active substances (such as menthol or urea) contained in the lotion. A placebo comparator was chosen because there are no approved treatments for prurigo nodularis in the United States or Europe or an established standard of care that could serve as an active control.
Quality of life-related secondary endpoints included change from Day 1 to the Evaluation Period in itching-related quality of life (using the Itchy QoL) and itching-related sleep disruption (using the MOS Sleep Scale-R). The Hospital Anxiety and Depression Score (HADS) used as a general measure of anxiety and depression.
Efficacy analysis of secondary continuous endpoints was performed using a mixed model repeated ANCOVA with the main effects of treatment and site, including the baseline value for each endpoint as the covariate. The model included time (i.e. Visit) as a factor variable and treatment*time (with placebo as the reference category) with an unstructured covariance structure for repeated measures. For other secondary efficacy endpoints, the Time factor corresponded to the scheduled study visits when the assessment was obtained (Visit 3, Visit 4, and Visit 5). Data from all post-baseline visits were used to fit the model.
In the first 2 weeks of treatment, patients were blindly force-titrated to their assigned target dose, with the patients in the active arms reaching a dose of 90 mg BID (NAL 90) and, for those in the high dose group, to 180 mg BID (NAL 180) in the second week. […]

Oc1ccc2c3c1OC1[C@@H](O)CC[C@@]4(O)[C@@H](C2)N(CC2CCC2)CC[C@]314 (stereo partly drawn) [Nalbuphine, 17-(cyclobutylmethyl)-4,5α-epoxymorphinian-3, 6α, 14-triol, hydrochloride]
Mean (SD) decrease in ItchyQoL total score from baseline to Week 10 (90 mg BID): −7.79 (7.83)
ItchyQoL total score, LS mean difference versus placebo (mixed model repeated measures) (180 mg BID, Week 10, p=0.022): −8.75
Mean (SD) decrease in ItchyQoL total score from baseline to Week 10 (180 mg BID): −13.83 (13.45)
